According to patent publication US6428816B1, “Carotenoid agent for inhibiting the conversion of epithelial cells to tumors” (Cognis Australia Pty., Ltd., priority 1992, dated 2002):
Entries after “also recorded” stand apart in the source; their conditions may differ.

Tests used:
c-jun = assay: Northern analysis of c-jun RNA in melanocytes exposed to UV-B; assay type: cell-based, human; conditions: for decrease of C-jun induction versus irradiated melanocytes in complete medium (TPA and IBMX) / RNA levels in the absence of the factor: FIG. 9; for decrease of C-jun induction versus irradiated melanocytes in complete medium (TPA and IBMX): medium without the factor (TPA 10 ng/ml or IBMX 0.1 mM) 24 hours, 100 mJ/cm^2 UVB, 1 hour after irradiation; for RNA levels in the absence of the factor: melanocytes not exposed to UVB
Excerpt: Ultra-violet (“UV”) radiation can cause severe damage to cells, including genetic mutations, the promotion of cancer, and other adverse conditions. The potentially harmful effects for UV radiation for humans are mainly due to the UVB spectrum (ie, radiation having a wavelength of between 290 and 320 nanometers) (See: […], Soler N A Staff J S and Mihm M C Jr: “The human sunburn reaction: histologic and biochemical studies” J, Am. […] Another form of UV radiation is called “UVC”. UVC radiation in sunlight typically has a wavelength of the order of 254 nanometers. It is not as biologically relevant as UVB radiation however, because th UVC radiation in sunlight is strongly absorbed by the earth's ozone layer. accordingly, in the present study, we investigated the effects of UVB irradiation by melanocytes, and the changes to those effects by treating those cells with carotenoids. UVC wavelengths were blocked out of the experiments as the cells were incubated in plastic vessels. […] Wavelengths shorter than 280 nm wee cut off by keeping lids on tissue culture dishes. […] Total RNA was isolated by detergent lysis followed by phenol-chloroform extraction and ethanol precipitation. 15 micrograms of RNA was size-fractionated on denaturing formaldehyde/agarose gels and transferred to nylon filters by capillary blotting. […] After hybridization, filters were washed to a stringency of 0.5-0.1X SSC at 60° C. and autoradiographed at -80° C. for three to ten days using Fuji film. Autoradiographs are quantitated by densitometry using the GS-365 software (Hoefer Scientific). […] The c-fos probe was a 1.8 kb Xbo 1/Eco R I fragment from the plasmid BK 28 (Verma, 1988). The 185 probe was isolated by an EcoRI digest and isolation of the 5.6 kb fragment from the plasmid pB (Gonzalez, 1988). […] The 0.05 hour time indicates cells were harvested within 3 minutes following UV-B exposure. A “control” group received precisely the same treatment as the “treated” group, with the exception of being treated with beta-carotene.

normal human melanocytes [1] = conditions: FIG. 2; 500 mJ/cm^2 UV-B; up to 24 hours after irradiation
Description: (§1) Human neonatal foreskins were placed in 0.25% trypsin at 4° C. overnight. Following this incubation, the tissue was scraped to recover the melanocytes. The melanocytes were cultured in MCDB 151 (Sigma) medium containing 2% fetal calf serum, 0.3% bovine pituitary extract (Clonetics Corp.), 10 nanograms/ml TPA, 2 mM CaCl2, 5 micrograms/ml insulin and 0.1 mM IBMX (Sigma).
(§2) Cells were harvested with 0.25% trypsin and counted on a Coulter Counter (Coulter Instruments). Viability was determined by trypan blue exclusion. DNA synthesis was measured by labelling with (methyl-^3H)-thymidine (2.5 mCi/ml, 20 Ci/mmol, DuPont-New England Nuclear) added to the medium during the last 4 hours of incubation. Melanocytes were harvested using a Ph.D. cell harvester (Cambridge Research Inc.). the amount of radioactivity incorporated was determined by liquid scintillation counting (LS5000TD. Beckman Instruments).
(§3) Normal human melanocytes were seeded into the appropriate vessel (6 well plate, 96 well plate, 75 cm or 175 cm flask) and allowed to grow to 50-60% confluency. […] The 0.05 hour time indicates cells were harvested within 3 minutes following UV-B exposure.

c-fos = assay: Northern analysis of c-fos RNA in melanocytes exposed to UV-B; assay type: cell-based, human
Description: as §3

NF Kappa B = assay: Gel mobility shift assay of NF Kappa B DNA binding activity in nuclear extracts of UV-B irradiated melanocytes; assay type: cell-based, human
Description: In summary, gel mobility shift assay using a NF Kappa B consensus sequence was performed to determine DNA binding activity of nuclear extracts from four normal Caucasian melanocyte (NCM) lines.
Cells were grown to approximately 50-60% confluency and treated as described in the experimental protocol described in section (i) below. The cells were allowed to swell in hypotonic buffer (10 mM HEPES, pH 7.8, 0.1 mM EDTA, 10 mM KCC, 1 mM DTT. PMSF for 15 minutes on ice). Cytosolic protein fraction was obtained after the addition of Nonider P-40 to a final concentration of 0.5% and separation from the nuclei by centrifugation (500×g. for 5 minutes). Nuclear proteins were extracted from the remaining pellet by dialysis with hypertonic buffer ([…], pH 7.9, 350 mM NaCl, 1 Mm DTT, 1 mM PMSF) for 2 hours at 10° C. Isolated nuclear protein was frozen and stored at −80° C. Quantitation was calculated from optical density readings of 230, 260 and 320 wavelengths.
Five microgram samples of each extract were incubated with 10,000 cpm of a ^32p-labelled consensus oligonucleotide of NF Kappa B. Following a 1 hour incubation, samples were electrophoresed in a low ionic strength polyacrylamide gel. Quantitation of protein; DNA complexes was accomplished by densitometry.
as §3

normal human melanocytes [2] = assay: DNA synthesis by tritiated thymidine incorporation in normal human melanocytes; assay type: cell-based; conditions: for effect on DNA synthesis (percent tritiated thymidine incorporation): no UV
Description: FIGS. 1 and 5 refer to “Percent Tritiated Thymidine Incorporation” which is a measure of DNA synthesis activity.
as §1, §2, §3

[3] = FIG. 6, 1 ug/ml for 24 hours, then 100 or 500 mJ/cm^2 UV-B, four melanocyte lines

Compound	decrease of C-jun induction versus irradiated melanocytes in complete medium (TPA and IBMX) (c-jun)	RNA levels in the absence of the factor (c-jun)	persistence of the viability increase over the time course (normal human melanocytes [1])	effect on induction of c-fos by UV-B (c-fos; FIG. 3, 500 mJ/cm^2 UV-B, beta-carotene pre-treatment)	effect on UVB-induced C-fos expression (c-fos; [3])	effect on NF kappa B DNA binding activity (NF Kappa B; FIG. 7, 100 mJ/cm^2 UV-B)	inhibition at 1 µg/mL (NF Kappa B; Homo sapiens, Melanocyte, light or radiation study, FIG. 8, 500 mJ/cm^2 UV-B, first hour following irradiation, 1.0 ug/ml pre-treatment 24 hours)	protective effect of pre-treatment (NF Kappa B complex) (NF Kappa B; one hour following UVB irradiation at 500 mJ/cm^2, p value less than 0.05, Student's t-test)	effect on DNA synthesis (percent tritiated thymidine incorporation) (normal human melanocytes [2]; FIG. 1, highest beta-carotene dose, 24 hours incubation)	effect on DNA synthesis (percent tritiated thymidine incorporation) (normal human melanocytes [2]; FIG. 1, lower beta-carotene doses, 24 hours incubation)	effect on DNA synthesis at the chosen pre-treatment dose (normal human melanocytes [2]; FIG. 1, pre-treatment dose, 1.0 microgram/ml or 10 μg/ml, 24 hours incubation)	effect of pre-treatment on DNA synthesis after UV-B (normal human melanocytes [2]; FIG. 4, 4 hours after irradiation, 400 mJ/cm^2 of UV-B)	effect of pre-treatment on DNA synthesis (tritiated thymidine incorporation) after UV-B (normal human melanocytes [2]; FIG. 4, 24 hours following 400 mJ/cm^2 of UV-B)	effect on induction of c-jun by UV-B (c-jun; FIG. 3, 24 hours following 500 mJ/cm^2 UV-B irradiation)	increase of c-jun expression by beta-carotene (c-jun; FIG. 3, four hours following 500 mJ/cm^2 UV-B irradiation)	effect on UVB-induced C-jun expression (c-jun; [3])
CCCCCCCCCCCCCC(=O)O[C@@H]1[C@@H](C)[C@@]2(O)[C@@H](C=C(CO)C[C@]3(O)C(=O)C(C)=C[C@@H]23)[C@H]2C(C)(C)[C@]12OC(C)=O [TPA, O-Tetradecanoylphorbol 13-acetate]	approximately 50%	unaffected														
CC1=C(/C=C/C(C)=C/C=C/C(C)=C/C=C/C=C(C)/C=C/C=C(C)/C=C/C2=C(C)CCCC2(C)C)C(C)(C)CCC1 [beta-carotene]			remained for the duration of the time course	essentially blocked	did not alter	slightly decreased; also recorded: moderate effect	> 50%	statistically significant protective effect	largely inhibited	little or no effect	minimal effect	not seen	increased	completely blocked	11.1 fold	only a slight effect
CC(C)Cn1c(=O)n(C)c(=O)c2[nH]cnc21 [IBMX, 3-Isobutyl 1-Methyl Xanthine]	approximately 50%	unaffected														
